103 compounds from PubChem BioAssay AID1996 can be followed below.

≈ marks a conversion by molar mass, not a printed value.

For this series the following is noted: buffer; pH 7.4; 200.0 µM.
The solubility (kinetic) is solubility judged after dilution from a stock solution rather than from solid. As to `O=C(O)C1C2CCC(CC2)C1C(=O)N1CCN(Cc2ccc(F)cc2)CC1` (stereo not drawn), the kinetic solubility was over 56.2 µg/mL.
With `Cn1c(N)c(C(=O)COC(=O)/C=C/c2ccccc2)c(=O)n(C)c1=O` the figure was 11.6 µg/mL (≈ 33.8 µM); with `CSc1ccc(CN2CCCCCC2)cc1`, 22.1 µg/mL (≈ 93.9 µM); with `CC(=O)N1C(C)(C)CC(=NOC(=O)c2ccccc2)CC1(C)C`, 47.1 µg/mL (≈ 149 µM).
With `C=CCN1C(=O)/C(=C/c2ccsc2)SC1=S` the figure was under 0.6 µg/mL.
The value for `CC(CCn1cccn1)NC(=O)CCc1nnc(C2CCCCC2)o1` (stereo not drawn) was over 51.8 µg/mL; that for `CSc1cccc(NC(=O)C2CC(=O)N(Cc3ccccc3)C2)c1` (stereo not drawn) was over 51.1 µg/mL.
As for `COc1ccc(C(=O)Nc2ccc(Nc3ccccc3)cc2)cc1[N+](=O)[O-]`, the kinetic solubility was under 0.3 µg/mL.
The value for `O=C(COc1ccc(Cl)cc1)NCCCNC(=O)c1cnccn1` was over 52.3 µg/mL; that for `COc1ccc(C2CC3(O)CC(C#N)(C(=O)N3)C2(C#N)C#N)cc1` (stereo not drawn) was over 48.3 µg/mL; that for `COc1ccc(Nc2cc(C)c3ccccc3n2)cc1` was 12.6 µg/mL (≈ 47.7 µM).
Turning to `Cc1ccc(C(=O)/C=C/c2ccccc2[N+](=O)[O-])cc1`, the solubility (kinetic) is 6.8 µg/mL (≈ 25.4 µM).
Compound `Cc1ccc(C2(C)NC(=O)N(CC(=O)N3CCc4ccccc43)C2=O)cc1` (stereo not drawn) registered a kinetic solubility of 3.6 µg/mL (≈ 9.91 µM).
With `Cc1occc1C(=O)N1CCN(c2ccc([N+](=O)[O-])cc2)CC1` the figure was 35.4 µg/mL (≈ 112 µM); with `Nc1nc(-c2cc(-c3ccccc3)no2)cs1`, 4.4 µg/mL (≈ 18.1 µM).
The value for `CCOc1ccc(NC(=O)/C(C#N)=C/c2cn(CC(=O)O)c3ccccc23)cc1` was over 58.4 µg/mL; that for `O=[N+]([O-])c1ccc(Nc2ccccc2)c2nonc12` was over 38.4 µg/mL.
The value for `O=C(COC(=O)COc1ccccc1[N+](=O)[O-])Nc1ccc2c(c1)OCO2` was 51.5 µg/mL (≈ 138 µM).
On to `CC1CCN(C(=O)COC(=O)c2cn(C)c3ccccc23)CC1`, for which the kinetic solubility was over 47.2 µg/mL.
The value for `O=C1CCC(C(=O)N2CCCC2)CN1CCc1cccc(F)c1` (stereo not drawn) was over 47.8 µg/mL.
With `Cc1nnc(SCC(=O)NC2CCCCCC2)n1C(C)C`, the kinetic solubility was over 46.6 µg/mL.
With `CCOP(=O)(OCC)C(Nc1ccccc1)c1ccco1` (stereo not drawn) the figure was over 46.4 µg/mL; with `Nc1nc(C(c2ccccc2)c2ccccc2)cs1`, 11 µg/mL (≈ 41.3 µM).
In the case of `COc1ccc(NC(=O)c2cc(C)no2)cc1`, the solubility (kinetic) was over 34.8 µg/mL.
With `CN(C)CCNC(=S)Nc1ccc(F)c(F)c1F` the figure was over 41.6 µg/mL; with `CCN(CC(=O)NCc1ccc(Cl)cc1)C(=O)/C=C/c1ccccc1`, 2.8 µg/mL (≈ 7.85 µM); with `CCCCOC(=O)c1ccc(NC(=O)C(=O)NCc2ccccn2)cc1`, 0.8 µg/mL (≈ 2.25 µM).
As to `COc1cc(CCC(=O)OCC(=O)NCCc2ccc(S(N)(=O)=O)cc2)cc(OC)c1OC`, the solubility (kinetic) is over 72.1 µg/mL.
The value for `O=C(Nc1nnc(C2=COCCO2)o1)c1cccc(F)c1` was over 43.7 µg/mL; that for `Nc1nc(-c2ccc(NC(=O)c3ccco3)cc2)cs1` was over 42.8 µg/mL.
With `COc1cc(NC(=S)N2CCN(CCO)CC2)cc(OC)c1` the figure was over 48.8 µg/mL; with `Cc1ncc([N+](=O)[O-])n1CC(=O)Nc1ccc(F)c(Cl)c1`, 0.5 µg/mL (≈ 1.6 µM); with `CNC(=O)CO/N=C/c1ccc(N(C)C)cc1`, over 35.3 µg/mL.
With `O=C1CCC(C(=O)OCC(=O)c2ccccc2)N1` (stereo not drawn) the figure was over 37.1 µg/mL; with `CCC1CCCCN1C(=O)CNCC1CCCO1.Cl` (stereo not drawn), 27.4 µg/mL.
For the compound `COc1cc(S(=O)(=O)Nc2cccnc2)ccc1Cl`, the kinetic solubility is over 44.8 µg/mL.
The value for `CCCCc1nc(C(N)=O)c2[nH]c(=O)n(-c3ccc(OCC)cc3)c2n1` was 5.6 µg/mL (≈ 15.8 µM).
The value for `CCOC(=O)Cn1c(C)c(Br)c(COC)c(C#N)c1=O` was over 51.5 µg/mL; that for `Cc1cccc(N2CCN(C(=O)/C=C/c3cccs3)CC2C)c1` (stereo not drawn) was 22.8 µg/mL (≈ 69.8 µM); that for `Cc1cc(C)c(S(=O)(=O)NCc2csc(C)n2)c(C)c1` was over 46.6 µg/mL.
The value for `O=C(COC(=O)C1=COCCO1)Nc1cc(C(F)(F)F)ccc1Cl` was 12.4 µg/mL (≈ 33.9 µM); that for `COc1ccc(C)c2sc(N(CCN(C)C)C(=O)c3ccc4ccccc4c3)nc12.Cl` was 30.8 µg/mL.
The compound `Cc1cc[n+](CC(=O)Nc2ccccc2)cc1.[Br-]` returned a kinetic solubility of 45.4 µg/mL.
As to `CCCCCc1ccc(S(=O)(=O)Nc2cc(C)ccn2)cc1`, the solubility (kinetic) was under 0.3 µg/mL.
The compound `COc1ccccc1C(=O)NC(=O)COC(=O)C1CC1C` (stereo not drawn) gave a solubility (kinetic) of over 43.7 µg/mL.
The value for `Cc1ccc(OCC(=O)OCC(=O)Nc2ccc3c(c2)OCO3)cc1C` was 9.6 µg/mL (≈ 26.9 µM); that for `O=S(=O)(Nc1nc2ccccc2nc1Cl)c1ccc(F)cc1` was over 50.7 µg/mL.
With `Cc1cccc(NC(=O)COc2ccc3c(c2)CCC3)n1` the figure was 2.4 µg/mL (≈ 8.5 µM); with `CC(=O)Nc1cc[n+](C(C)C(=O)c2ccccc2)cc1.[Cl-]` (stereo not drawn), 34 µg/mL; with `Clc1ccc(Cn2ccnc2)cn1`, 24.2 µg/mL (≈ 125 µM).
With `CC(=O)N1CCN(c2nnc(-c3ccc(C)cc3)c3ccccc23)CC1` the figure was over 52 µg/mL.
The compound `CCOC(=O)c1sc(NC(=O)Cc2ccc(F)cc2)nc1C` registered a kinetic solubility of 3.8 µg/mL (≈ 11.8 µM).
With `O=C(CSc1nccc(=O)[nH]1)NCc1ccc2c(c1)OCO2` the figure was over 47.9 µg/mL; with `Cc1onc(-c2ccccc2)c1C(=O)N(C)CC(=O)Nc1ccc(F)c(F)c1F`, over 60.5 µg/mL.
With `CC(NC(=O)c1ccccc1F)C1CC1` (stereo not drawn) the figure was over 31.1 µg/mL.
The value for `CSc1cccc(NC(=S)Nc2ccc(F)cc2)c1` was 34.5 µg/mL (≈ 118 µM).
With `COc1cc(C(C[N+](=O)[O-])c2c(C)cc3ccccn23)ccc1O` (stereo not drawn), the kinetic solubility is 8.9 µg/mL (≈ 27.3 µM).
`O=C(NCC1CCCO1)c1ccc(F)c2ccccc12` (stereo not drawn): the solubility (kinetic) is over 41 µg/mL.
The value for `COC(=O)N1CCCc2cc(C)ccc21` was 15.5 µg/mL (≈ 75.5 µM); that for `CC(=O)NCc1ccc(S(=O)(=O)N2CCCN(C)CC2)cc1.Cl` was over 54.3 µg/mL.
Compound `CC1CCN(c2cc(Br)c([N+](=O)[O-])cc2F)CC1` came in with a solubility (kinetic) of 3.1 µg/mL (≈ 9.77 µM).
With `O=C(COC(=O)c1ccccn1)Nc1cccc2ccccc12` the figure was over 45.9 µg/mL; with `O=C(c1ccco1)N1CCN(S(=O)(=O)c2cccc([N+](=O)[O-])c2)CC1`, over 54.8 µg/mL; with `O=C(Nc1cccnc1)c1ccc([N+](=O)[O-])o1`, over 35 µg/mL.
The value for `Cc1ccc(C(=O)C(C)OC(=O)c2ccc(Cl)nc2)cc1` (stereo not drawn) was 34.1 µg/mL (≈ 112 µM).
With `CC(=O)N1CCN(c2nc(N)c(C#N)c(CC#N)c2C#N)CC1` the figure was over 46.4 µg/mL; with `COc1cccc(NC(=O)C(c2ccccc2)N2CCCC2)c1` (stereo not drawn), over 46.6 µg/mL.
The compound `Cc1cc2oc(=O)cc(CN3CCOCC3)c2cc1Cl` came in with a kinetic solubility of 4.3 µg/mL (≈ 14.6 µM).
For the compound `Cc1cc(C)c(OCC(=O)N2CC=C(c3ccccc3)CC2)c(C)c1`, the kinetic solubility was found to be 13 µg/mL (≈ 38.8 µM).
With `C=CCn1cc(C(=O)OCC)c(=O)c2ccc(F)cc21` the figure was 40.2 µg/mL (≈ 146 µM); with `CC1CN(C(=O)COC(=O)c2ccc(C#N)cc2)CC(C)O1` (stereo not drawn), over 45.3 µg/mL; with `Nc1nc2c(Cl)cc(Cl)cc2s1`, 7.4 µg/mL (≈ 33.8 µM).
The value for `COC(=O)c1ccc(C2C(C#N)=C(N)Oc3cc(O)ccc32)cc1` (stereo not drawn) was 46.3 µg/mL (≈ 144 µM); that for `O=C(NCCCN1CCOCC1)c1ccc(Cl)cc1[N+](=O)[O-]` was 49.1 µg/mL (≈ 150 µM).
The value for `Cc1ccc(CN2CCN(C3CCC3)CC2CCO)cc1` (stereo not drawn) was 42.4 µg/mL (≈ 147 µM); that for `CCOC(=O)c1cc(C#N)c(Nc2ccccc2OC)nc1C(F)(F)F` was under 0.3 µg/mL.
`Cl.O=C(OCC1CCNCC1)c1ccc2c(c1)OCO2` registered a solubility (kinetic) of over 45 µg/mL.
For `O=C(NCCC1CC1(Cl)Cl)c1ccc([N+](=O)[O-])cc1` (stereo not drawn), the solubility (kinetic) was determined as 36.9 µg/mL (≈ 122 µM).
With `CCc1cc2ccc(C)cc2nc1SCC(=O)NC1CCCC1` the figure was 1.2 µg/mL (≈ 3.65 µM); with `CC(=O)c1ccc(OCC(=O)Nc2ccccc2N2CCCC2)cc1`, 44.4 µg/mL (≈ 131 µM).
The value for `COc1ccccc1N1CCN(Cc2ccc(C(=O)O)cc2)CC1` was 42.2 µg/mL (≈ 129 µM).
With `Cc1cc(-c2csc(Nc3ccccn3)n2)ccc1F` the figure was under 0.2 µg/mL; with `Nc1cccc(NP(=O)(c2ccccc2)c2ccccc2)c1`, 1.7 µg/mL (≈ 5.51 µM).
`Cc1cccc(CC(=O)N2CCN(C(=O)c3ccco3)CC2)c1` displayed a solubility (kinetic) of over 46.9 µg/mL.
The value for `CCN(CC)S(=O)(=O)c1ccc2oc(Nc3ccccc3)nc2c1` was 6.4 µg/mL (≈ 18.5 µM).
With `COc1ccc(NS(=O)(=O)c2ccc(N3CCCCC3)c(NC(=O)C(C)NC(N)=O)c2)cc1` (stereo not drawn) the figure was over 71.3 µg/mL; with `Cc1ccc(OCC(=O)O/N=C(\N)c2ccncc2)cc1C`, 18.6 µg/mL (≈ 62.1 µM); with `Cc1onc(-c2c(Cl)cccc2Cl)c1C(O)c1ccc(F)cc1` (stereo not drawn), 42.1 µg/mL (≈ 120 µM).
The value for `Fc1ccc(-c2nc(-c3cccs3)no2)cc1` was under 0.3 µg/mL; that for `Oc1ccc(CNc2ccccc2)c2cccnc12` was 3.5 µg/mL (≈ 14 µM); that for `COc1cc(C(=O)NC2CC(C)(C)NC(C)(C)C2)cc(OC)c1OC` was over 52.6 µg/mL.
The compound `CCc1ccccc1NC(=O)c1cc(-c2cccs2)on1` displayed a solubility (kinetic) of 0.8 µg/mL (≈ 2.68 µM).
With `Cc1cc(C)c(NC(=O)c2cccc(NC(=O)c3ccco3)c2)c(C)c1`, the solubility (kinetic) turned out to be 44.3 µg/mL (≈ 127 µM).
With `CNC(=S)Nc1cc2oc3ccccc3c2cc1OC` the figure was 33.7 µg/mL (≈ 118 µM); with `O=C(NN1CCOCC1)c1ccc(Br)s1`, over 43.7 µg/mL; with `CN(C)C(=O)Oc1cccc([N+](C)(C)C)c1.[Br-]`, over 45.5 µg/mL.
With `O=C(NCCc1ccc(Cl)cc1)C12CC3CC(CC(O)(C3)C1)C2` the figure was 46.9 µg/mL (≈ 140 µM).
The value for `O=C(NCCCCc1ccccc1)c1ccccc1Br` was 8.6 µg/mL (≈ 25.9 µM); that for `CC1=NCCN1CCNC(=O)Nc1cc(C)cc(C)c1` was 40 µg/mL (≈ 146 µM); that for `Cc1ccnc(NC(=O)c2oc3ccccc3c2C)c1` was 3.6 µg/mL (≈ 13.5 µM).
Consider `O=C(Nc1ccc(Br)cn1)c1cccc(S(=O)(=O)N2CCCC2)c1`, for which the solubility (kinetic) is 5.7 µg/mL (≈ 13.9 µM).
As for `COc1ccc(NC(=O)CN2C(=O)NC(C)(c3ccc4c(c3)OCO4)C2=O)cc1S(N)(=O)=O` (stereo not drawn), the solubility (kinetic) turned out to be 66.9 µg/mL (≈ 140 µM).
The value for `O=C(OCC(=O)N1CCc2ccccc21)c1nc(Cl)ccc1Cl` was 23.3 µg/mL (≈ 66.3 µM).
